Results from PMC3493109 (Biochemistry, 2012).

What was measured:
Format in all cases: binding
[1] = biological target: T1, glyoxylate carboligase (GCL) (Escherichia coli, UniProt P0AEP7, I393A); test: CD titration at […] nm, Hill fit
[2] = biological target: glyoxylate carboligase (GCL) (Escherichia coli, UniProt P0AEP7, I393A/V51D); test: CD titration at […] nm
[3] = biological target: T1, glyoxylate carboligase (GCL); test: CD titration at […] nm

T1 sequence (P0AEP7 2-593 I393A limits assumed): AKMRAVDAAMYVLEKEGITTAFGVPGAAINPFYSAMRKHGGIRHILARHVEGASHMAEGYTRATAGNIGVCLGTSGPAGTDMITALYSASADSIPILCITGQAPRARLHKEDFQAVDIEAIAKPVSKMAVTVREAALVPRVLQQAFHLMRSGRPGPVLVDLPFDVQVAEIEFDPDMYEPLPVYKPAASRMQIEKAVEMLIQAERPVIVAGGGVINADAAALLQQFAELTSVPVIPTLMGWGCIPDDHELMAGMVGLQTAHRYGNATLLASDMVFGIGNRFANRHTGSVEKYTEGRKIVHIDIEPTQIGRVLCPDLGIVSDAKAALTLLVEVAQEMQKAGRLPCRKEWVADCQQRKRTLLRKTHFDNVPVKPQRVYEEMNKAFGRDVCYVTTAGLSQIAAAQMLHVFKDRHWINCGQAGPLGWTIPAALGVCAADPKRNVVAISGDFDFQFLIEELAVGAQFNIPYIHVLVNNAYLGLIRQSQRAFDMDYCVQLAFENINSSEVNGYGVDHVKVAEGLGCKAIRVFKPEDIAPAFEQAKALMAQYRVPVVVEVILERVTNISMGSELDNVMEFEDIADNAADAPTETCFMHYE
Chain of glyoxylate carboligase (GCL) (Escherichia coli, UniProt P0AEP7, I393A/V51D) (P0AEP7 2-593 V51D/I393A limits assumed): as the sequence (P0AEP7 2-593 I393A limits assumed) above, with V50D counted along it

| SMILES | Kd [1] | Kd [2] | Kd [3] |
| --- | --- | --- | --- |
| CC(=O)C(=O)O [pyruvate] | 8.2 µM |  |  |
| COP(=O)(O)C(C)=O [MAP] |  | 110 ± 100 µM | 1400 ± 90 µM |
